Experimental data taken from patent publication US20180318473A1, “DRUGS WITH IMPROVED HYDROPHOBICITY FOR INCORPORATION IN MEDICAL DEVICES” (Abraxis BioScience, LLC, priority 2005, published 2018).
Values joined by “and” are separate entries in the source; they are usually repeats but may differ in a detail not shown here. Equal values may be shown once. Read-outs that look alike come from different tables or passages of the source.

Legend:
MX-1 mammary tumor cells [1] = assay: Cytotoxic activity on MX-1 mammary tumor cells in culture; settings: for IC50: read-out: Cytotoxicity on MX-1, IC50
albumin = albumin (Homo sapiens, UniProt P02768); assay: Binding of compounds to albumin
[2] = Hydrophobicity by relative elution time from a C18 HPLC column; type: physicochemical; settings: for HPLC retention time (min) Condition 1: acetonitrile / ammonium acetate buffer pH 6.4 with 5 mM TBAP gradient, 0.8 mL/min; for HPLC retention time (min) Condition 1 / HPLC retention time (min) Condition 2: column temperature 35° C.; for HPLC retention time (min) Condition 2: acetonitrile/water gradient 50:50 to 90:10, 1 mL/min; for HPLC retention time (min) Condition 2, column temperature 70° C.: acetonitrile/water gradient, 1 mL/min, **column temperature was set at 70° C.
From the text: To increase the penetration and retention of a drug released from a device such as a stent into the vascular wall or wall of other vessel or tissue, several drugs were modified to increase their hydrophobicity. […] […] The longer the elution time, the more hydrophobic the compound.

MX-1 mammary tumor cells [3] = tested on: MX-1 mammary tumor cells
[4] = MX-1 mammary tumor cells in culture, drug itself
[5] = smaller number indicates greater binding affinity, read-out: Albumin Binding, KD

albumin, sequence (P02768 25-609, species assumed): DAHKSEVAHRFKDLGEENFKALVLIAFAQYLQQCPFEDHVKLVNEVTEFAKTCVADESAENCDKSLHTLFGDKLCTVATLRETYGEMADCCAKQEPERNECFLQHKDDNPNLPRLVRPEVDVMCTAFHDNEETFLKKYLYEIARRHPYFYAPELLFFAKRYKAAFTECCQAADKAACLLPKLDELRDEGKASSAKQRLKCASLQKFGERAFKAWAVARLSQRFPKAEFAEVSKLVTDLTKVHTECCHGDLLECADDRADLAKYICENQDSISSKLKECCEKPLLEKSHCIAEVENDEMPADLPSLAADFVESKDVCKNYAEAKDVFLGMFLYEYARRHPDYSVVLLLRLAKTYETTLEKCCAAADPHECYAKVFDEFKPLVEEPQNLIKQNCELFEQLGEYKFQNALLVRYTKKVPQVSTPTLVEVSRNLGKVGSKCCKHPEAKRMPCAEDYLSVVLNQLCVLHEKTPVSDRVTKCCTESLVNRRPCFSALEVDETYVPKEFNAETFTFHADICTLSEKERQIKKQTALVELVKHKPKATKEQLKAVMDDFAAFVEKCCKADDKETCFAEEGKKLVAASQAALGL

Question: With CC(=O)OC1C(=O)C2(C)C(O)CC3OCC3(OC(C)=O)C2C(OC(=O)c2ccccc2)C2(O)CC(OC(=O)C(OC(=O)c3ccccc3)C(NC(=O)c3ccccc3)c3ccccc3)C(C)=C1C2(C)C (centres unmarked) [Compound 1] as the molecule, how does the IC50 (MX-1 mammary tumor cells [1]; [4]) read?
Answer: 30 µM

Question: And the Kd (albumin; [5])?
Answer: 103 µM

Question: For CC(=O)OC12COC1CC(O)C1(C)C(=O)C(O)C3=C(C)C(OC(=O)C(OC(=O)c4ccccc4)C(NC(=O)OC(C)(C)C)c4ccccc4)CC(O)(C(OC(=O)c4ccccc4)C21)C3(C)C (centres unmarked) [Compound 2, 2′ BENZOYL DOCETAXEL], which IC50 (MX-1 mammary tumor cells [1]) is on record?
Answer: 38 µM

Question: And the Kd (albumin; [5])?
Answer: 8.8 µM

Question: With CCc1c2c(nc3ccc(O)cc13)-c1cc3c(c(=O)n1C2)COC(=O)[C@]3(O)CC [Compound 6] as the molecule, how does the IC50 (MX-1 mammary tumor cells [1]; [4]) read?
Answer: 267 µM

Question: What about the “HPLC retention time (min) Condition 1” value [2] of the same molecule?
Answer: 7.8 min

Question: And the “HPLC retention time (min) Condition 2” value [2]?
Answer: 2.2 min

Question: And the Kd (albumin; [5])?
Answer: 484 µM

Question: For CCC(=O)Oc1ccc2nc3c(cc2c1)Cn1c-3cc2c(c1=O)COC(=O)C2(CC)OC(=O)CC (centres unmarked) [Compound 7], which IC50 (MX-1 mammary tumor cells [1]; [4]) is on record?
Answer: 45 µM

Question: What about the “HPLC retention time (min) Condition 1” value [2] of the same molecule?
Answer: 19.8 min

Question: What about the “HPLC retention time (min) Condition 2, column temperature 70° C.” value [2] of the same molecule?
Answer: 6.1** min

Question: For CCCC(=O)Oc1ccc2nc3c(cc2c1)Cn1c-3cc2c(c1=O)COC(=O)[C@@]2(CC)OC(=O)CCC [Compound 8], which IC50 (MX-1 mammary tumor cells [1]; [4]) is on record?
Answer: 152 µM

Question: What about the “HPLC retention time (min) Condition 1” value [2] of the same molecule?
Answer: 21.9 min

Question: Which IC50 (MX-1 mammary tumor cells [1]; [4]) does the source give for CCC1(OC(=O)C(C)C)C(=O)OCc2c1cc1n(c2=O)Cc2cc3cc(OC(=O)C(C)C)ccc3nc2-1 (centres unmarked) [Compound 9] here?
Answer: 23 µM

Question: What about the “HPLC retention time (min) Condition 1” value [2] of the same molecule?
Answer: 22.0 min

Question: For CCCCCC(=O)Oc1ccc2nc3c(cc2c1)Cn1c-3cc2c(c1=O)COC(=O)[C@@]2(CC)OC(=O)CCCCC [Compound 10, CAMPTOTHECIN 10,20-DI O HEXONATE], which IC50 (MX-1 mammary tumor cells [1]; [4]) is on record?
Answer: 8 µM

Question: And the “HPLC retention time (min) Condition 1” value [2]?
Answer: 25.3 min

Question: With CCC1(OC(=O)CNC(=O)OC(C)(C)C)C(=O)OCc2c1cc1n(c2=O)Cc2cc3cc(OC(=O)CNC(=O)OC(C)(C)C)ccc3nc2-1 (centres unmarked) [Compound 11] as the molecule, how does the IC50 (MX-1 mammary tumor cells [1]; [4]) read?
Answer: 221 µM

Question: And the “HPLC retention time (min) Condition 1” value [2]?
Answer: 20.9 min

Question: What does the source list for CCC1(OC(=O)COC)C(=O)OCc2c1cc1n(c2=O)Cc2cc3cc(OC(=O)COC)ccc3nc2-1 (centres unmarked) [Compound 12]?
Answer: IC50 (MX-1 mammary tumor cells [1]; [4]): 372 µM; HPLC retention time (min) Condition 1 [2]: 14.1 min

Question: Which IC50 (MX-1 mammary tumor cells [1]; [4]) does the source give for CCC1(OC(=O)CN)C(=O)OCc2c1cc1n(c2=O)Cc2cc3cc(OC(=O)CN)ccc3nc2-1 (centres unmarked) [Compound 13] here?
Answer: 242 µM

Question: And the “HPLC retention time (min) Condition 1” value [2]?
Answer: 6.1 min

Question: Which IC50 (MX-1 mammary tumor cells [1]; [4]) does the source give for CCC1(OC(=O)c2ccccc2)C(=O)OCc2c1cc1n(c2=O)Cc2cc3cc(OC(=O)c4ccccc4)ccc3nc2-1 (centres unmarked) [Compound 14] here?
Answer: 740 µM

Question: What about the “HPLC retention time (min) Condition 1” value [2] of the same molecule?
Answer: 22.9 min

Question: With CCC(=O)Oc1ccc2nc3c(c(CC)c2c1)Cn1c-3cc2c(c1=O)COC(=O)[C@@]2(CC)OC(=O)CC [Compound 15] as the molecule, how does the IC50 (MX-1 mammary tumor cells [1]; [4]) read?
Answer: 28 µM

Question: And the “HPLC retention time (min) Condition 1” value [2]?
Answer: 20.8 min

Question: What about the “HPLC retention time (min) Condition 2, column temperature 70° C.” value [2] of the same molecule?
Answer: 9.3** min

Question: Which IC50 (MX-1 mammary tumor cells [1]; [4]) does the source give for CCCCCC(=O)Oc1ccc2nc3c(cc2c1)Cn1c-3cc2c(c1=O)COC(=O)C2(CC)OC(=O)CCCCC (centres unmarked) [Compound 16] here?
Answer: 4 µM

Question: Which results are given for C=CCNC1=C2C[C@@H](C)C[C@H](OC)[C@H](O)[C@@H](C)/C=C(\C)[C@H](OC(N)=O)[C@@H](OC)/C=C\C=C(/C)C(=O)NC(=CC1=O)C2=O [Compound 17AAG, 17AAG, reference compound]?
Answer: IC50 (MX-1 mammary tumor cells [1]; [4]): 3 µM; HPLC retention time (min) Condition 2 [2]: 14.9 min

Question: Which IC50 (MX-1 mammary tumor cells [1]; [4]) does the source give for CCCCCCCCCC(=O)Oc1ccc2nc3c(c(CC)c2c1)Cn1c-3cc2c(c1=O)COC(=O)[C@@]2(CC)OC(=O)CCCCCCCCC [Compound 17] here?
Answer: 2000 µM

Question: And the “HPLC retention time (min) Condition 2” value [2]?
Answer: 31.2 min

Question: For CCCCCCCCCCCCCC(=O)Oc1ccc2nc3c(c(CC)c2c1)Cn1c-3cc2c(c1=O)COC(=O)[C@@]2(CC)OC(=O)CCCCCCCCCCCCC [Compound 18], which “Cytotoxicity on MX-1, IC50” value (MX-1 mammary tumor cells [1]; [4]) is on record?
Answer: Inactive

Question: And the “HPLC retention time (min) Condition 2” value [2]?
Answer: 31.2 min

Question: For CCCCCCCCCCCC(=O)Oc1ccc2nc3c(c(CC)c2c1)Cn1c-3cc2c(c1=O)COC(=O)[C@@]2(CC)OC(=O)CCCCCCCCCCC [Compound 19], which “Cytotoxicity on MX-1, IC50” value (MX-1 mammary tumor cells [1]; [4]) is on record?
Answer: Inactive

Question: And the “HPLC retention time (min) Condition 2” value [2]?
Answer: 31.2 min

Question: With CCCCCCCCCCCCCCCCCC(=O)Oc1ccc2nc3c(c(CC)c2c1)Cn1c-3cc2c(c1=O)COC(=O)[C@@]2(CC)OC(=O)CCCCCCCCCCCCCCCCC [Compound 20] as the molecule, how does the “Cytotoxicity on MX-1, IC50” value (MX-1 mammary tumor cells [1]; [4]) read?
Answer: Inactive

Question: What about the “HPLC retention time (min) Condition 2” value [2] of the same molecule?
Answer: 30.6 min

Question: Which results are given for CCc1c2c(nc3ccc(OC(=O)CCCC(C)CC)cc13)-c1cc3c(c(=O)n1C2)COC(=O)[C@@]3(CC)OC(=O)CCCC(C)CC (some centres unmarked) [Compound 21]?
Answer: IC50 (MX-1 mammary tumor cells [1]; [4]): 295 µM; HPLC retention time (min) Condition 2 [2]: 40.2 min

Question: Which “Cytotoxicity on MX-1, IC50” value (MX-1 mammary tumor cells [1]; [4]) does the source give for CCCCCCCCCCCCCCCC(=O)Oc1ccc2nc3c(cc2c1)Cn1c-3cc2c(c1=O)COC(=O)C2(CC)OC(=O)CCCCCCCCCCCCCCC (centres unmarked) [Compound 22] here?
Answer: Inactive

Question: What about the “HPLC retention time (min) Condition 2” value [2] of the same molecule?
Answer: 30.5 min

Question: Which IC50 (MX-1 mammary tumor cells [1]) does the source give for COc1cc2c(c(OC)c1OC)-c1ccc(SC)c(=O)cc1[C@@H](NC(=O)CCNC(=O)N[C@H]1CCc3cc(OC)c(OC)c(OC)c3-c3ccc(SC)c(=O)cc31)CC2 [Compound 24] here?
Answer: 37 µM

Question: And the Kd (albumin)?
Answer: 109 µM

Question: For COc1cc2c(c(OC)c1OC)-c1ccc(SC)c(=O)cc1[C@@H](NC(=O)CCCCCCCCC(=O)N[C@H]1CCc3cc(OC)c(OC)c(OC)c3-c3ccc(SC)c(=O)cc31)CC2 [Compound 25], which IC50 (MX-1 mammary tumor cells [1]) is on record?
Answer: 155 µM

Question: What about the Kd (albumin) of the same molecule?
Answer: 30 µM

Question: For COc1cc2c(c(OC)c1OC)-c1ccc(SC)c(=O)cc1[C@@H](NC(=O)c1cncc(C(=O)N[C@H]3CCc4cc(OC)c(OC)c(OC)c4-c4ccc(SC)c(=O)cc43)c1)CC2 [Compound 26], which IC50 (MX-1 mammary tumor cells [1]) is on record?
Answer: 361 µM

Question: And the Kd (albumin)?
Answer: 28 µM

Question: Which Kd (albumin) does the source give for COc1cc2c(c(OC)c1OC)-c1ccc(SC)c(=O)cc1[C@@H](NC(=O)C1CCCC(C(=O)N[C@H]3CCc4cc(OC)c(OC)c(OC)c4-c4ccc(SC)c(=O)cc43)C1)CC2 (some centres unmarked) [Compound 27] here?
Answer: 52 µM

Question: With COC1C=CC=C(C)C(=O)NC2=CC(=O)C(N3CC3C)=C(CC(C)CC(OC)C(O)C(C)C=C(C)C1OC(N)=O)C2=O (centres unmarked) [Compound 30, 17-METHYLAZIRIDINYL-17-DEMETHOXYGELDANAMYCIN] as the molecule, how does the “HPLC retention time (min) Condition 2” value [2] read?
Answer: 11.1 min and 11.6 min

Question: And the IC50 (MX-1 mammary tumor cells [3])?
Answer: 300 nM

Question: For CC[C@@]1(O)C(=O)OCc2c1cc1n(c2=O)Cc2cc3cc(O)ccc3nc2-1 [Compound 32], which IC50 (MX-1 mammary tumor cells [1]) is on record?
Answer: 13 µM

Question: And the “HPLC retention time (min) Condition 1” value [2]?
Answer: 6.1 min

Question: And the “HPLC retention time (min) Condition 2” value [2]?
Answer: 1.9 min

Question: What about the Kd (albumin) of the same molecule?
Answer: 1200 µM

Question: With CC(=O)O[C@@]12CO[C@@H]1C[C@H](O)[C@@]1(C)C(=O)[C@H](O)C3=C(C)[C@@H](OC(=O)[C@H](O)[C@@H](NC(=O)OC(C)(C)C)c4ccccc4)C[C@@](O)([C@@H](OC(=O)c4ccccc4)[C@H]21)C3(C)C [Docetaxel, reference compound] as the molecule, how does the “HPLC retention time (min) Condition 2” value [2] read?
Answer: 9.0 min

Question: What about the Kd (albumin; [5]) of the same molecule?
Answer: 5.45 µM

Question: With COC1=C2C[C@@H](C)C[C@H](OC)[C@H](O)[C@@H](C)/C=C(\C)[C@H](OC(N)=O)[C@@H](OC)/C=C\C=C(/C)C(=O)NC(=CC1=O)C2=O [Geldanamycin, reference compound] as the molecule, how does the IC50 (MX-1 mammary tumor cells [1]; [4]) read?
Answer: 0.5 µM

Question: And the “HPLC retention time (min) Condition 2” value [2]?
Answer: 10.8 min

Question: For CC(=O)O[C@H]1C(=O)[C@@]2(C)[C@H]([C@H](OC(=O)c3ccccc3)[C@]3(O)C[C@H](OC(=O)[C@H](O)[C@@H](NC(=O)c4ccccc4)c4ccccc4)C(C)=C1C3(C)C)[C@]1(OC(C)=O)CO[C@@H]1C[C@@H]2O [Paclitaxel, reference compound], which “HPLC retention time (min) Condition 2” value [2] is on record?
Answer: 10.5 min

Question: What about the Kd (albumin; [5]) of the same molecule?
Answer: 39.8 µM

Question: Which results are given for CO[C@H]1C[C@@H]2CC[C@@H](C)[C@@](O)(O2)C(=O)C(=O)N2CCCC[C@H]2C(=O)O[C@H]([C@H](C)C[C@@H]2CC[C@@H](O)[C@H](OC)C2)CC(=O)[C@H](C)/C=C(\C)[C@@H](O)[C@@H](OC)C(=O)[C@H](C)C[C@H](C)/C=C/C=C/C=C/1C [Rapamycin, reference compound]?
Answer: IC50 (MX-1 mammary tumor cells [1]; [4]): 27 µM; Kd (albumin; [5]): 102 µM

Question: Which “HPLC retention time (min) Condition 2, column temperature 70° C.” value [2] does the source give for Benzoyl rapamycin [Compound 23] here?
Answer: 32.6** min
